“Also recorded” adds a separate entry of the source.
Tests used:
[1] = test system: EGI-1 cell line
Protocol: (§1) Di (monoethanolammonium) meso-tetraphenyl chlorin disulfonate (TPCS2a/Amphinex®) was provided by PCI Biotech AS (Lysaker, Norway). Amphinex batch number: FAMP 1002. TPCS2a (in 3% polysorbate 80, 2.8% mannitol, 50 mM Tris pH 8.5) stock solution (0.4 mg/ml) was kept at 4° C. in aliquots and light protected. All work with the photosensitizer was performed under subdued light.
(§2) Illumination of the cells was performed by using Lumisource (PCI Biotech, Oslo). This lamp consists of four standard light tubes (18 W/tube, Osram L 18/67), which emit blue light with a main peak at approximately 435 nm and was used for excitation of TPCS2a. The irradiance emitted from the blue light source was 12 mW/cm^2 and varied less than 10% across the illumination area (765 cm^2). The light source was air-cooled during light exposure to keep the irradiance stable and prevent cells from hyperthermia.
(§3) Cells were seeded in 96-well or 6-well plates (Nunclon, Nunc, Roskilde, Denmark) and allowed to attach at 37° C. overnight. […]
(§4) The MTT method (tetrazolium dye reduction) was performed 48 h after light exposure with Lumisource. […] The 96 well plates were set on a shaker for 5 minutes before absorbance was measured at 570 nm with a power wave XS2 (Biotek, VT, USA). […]

[2] = test system: TFK-1 cell line; experiment: PCI with gemcitabine, MTT cytotoxicity assay; format: cell-based, human
Protocol: as §1, §2, §3, §4

[3] = test system: TFK-1 cell line; experiment: Cytotoxicity of gemcitabine without PCI, MTT assay; format: cell-based, human
Source text: The cell lines used were TFK-1 and EGI-1, both were obtained from the Department of Cancer Prevention, The Norwegian Radium Hospital, Oslo, Norway. TFK-1 is a human papillary bile duct adenocarcinoma cell line and EGI-1 is a poorly differentiated human bile duct adenocarcinoma cell line. Both cell lines originate from extrahepatic tumours (Saijyo et al., 1995, Tohoku J. Exp. Med., 177:61-71; EGI-1—Cell LINCS Library of Intergrated network-based Cellular Signatures. Available from the website having the URL beginning with “lincs” and ending with “.hms.harvard.edu/db/cells/50181/”), but are quite different both morphologically and physiologically (Xu et al., 2013, Clinical Cancer Research, January 1; 19(1):118-27; Pignochino et al., 2010, BMC Cancer, 10:631).
The MTT method (tetrazolium dye reduction) was performed 48 h after light exposure with Lumisource. The culture medium was removed and cells were incubated in medium containing 0.25 mg/ml MTT (Sigma) for approximately 3 hours before replacement with 100 μl of 99% dimethylsulfoxide (Sigma). The 96 well plates were set on a shaker for 5 minutes before absorbance was measured at 570 nm with a power wave XS2 (Biotek, VT, USA). Wells without cells incubated with MTT-medium only were used for blank subtraction.

[4] = test system: NCI-H460 human lung cancer tumour cells; experiment: Tumour growth of subcutaneous NCI-H460 xenografts after PCI with gemcitabine; format: in vivo, Nude (nu/nu) athymic mice; conditions: for No. of animals alive at the end of study: 10 animals at start
Protocol: Nude (nu/nu) athymic mice (female, CD-1 nu/nu strain, at least 6 weeks old) were used which have been used extensively to generate human tumour xenografts and remain the experimental method of choice for testing anti-tumour efficacy of new compounds prior to administration in man. The route of administration of the test substances was intravenous. The dose of Amphinex® was 5 mg/kg, based on earlier mouse studies performed by PCI Biotech AS and collaborators.
There were 6 treatment groups with 10 mice per group. Mice were injected subcutaneously with 7×10^7 cells/mL NCI-H460 tumour cells to allow selection of optimal tumours for inclusion in the study. Tumours of the appropriate size were allocated to the various treatment groups.
Amphinex® was administered intravenously via a tail vein, using a dose volume of 4 mL/kg.
Human NCI-H460 non-small cell lung cancer cells (American Type Culture Collection [ATCC], Maryland, USA, or the European Collection of Cell Cultures [ECACC], Porton Down, UK) were harvested from sub-confluent cultures growing in vitro and the number of viable cells determined. Cells were then re-suspended in sterile phosphate buffered saline (PBS) at a concentration of approximately 7×10^7 cells/mL. Nude (nu/nu) athymic mice were injected subcutaneously in the right flank with approximately 7×10^6 NCI-H460 cells in a volume of 0.1 mL. Animals were examined regularly for the appearance of tumours. When measurable tumours had established in the majority of mice, animals were assigned into 6 treatment groups with a target of up to 10 mice per group. Mice received an intravenous injection of Amphinex when the tumours had reached a size such that the tumour volume was approximately in the range 100 to 150 mm^3 72 hours later.
For tumour illumination each animal was restrained, one at a time, in a metal restraint which allows only the lower flank area, i.e. tumour area plus a 2 mm diameter surrounding area, to be exposed. A 650 nm diode laser (TWI Diode Laser, Quanta System, Italy) was then used to expose the tumour tissue to a light dose of 15 J/cm^2, with a fluence rate of 90 mW/cm^2. Each animal had their tumour exposed to the laser for approximately 167 s, to give the required dose of 15 J/cm^2.
Tumour size was measured at least twice weekly using digital callipers for up to 4 weeks following illumination or until the tumour size (as specified in the UK Home Office Licence) or other clinical signs necessitated removal of that mouse from the study. Tumour dimensions were recorded (length and width), and tumour volumes calculated using the formula (W^2×L)/2, where W is the […] tumour dimension and L is the longest. Animals were terminated if the tumour size had become excessive or any adverse effects were noted.
The tumour dimensions measured over the period of the study—length (L, long) and width (W, short) in mm, were recorded and kept as raw data. The mean tumour volumes on the first day of treatment were reported for each group. Calculations of relative tumour volumes and plots of mean tumour growth curves were performed. Body weight data were also obtained.

[5] = test system: EGI-1 cell line; experiment: Cytotoxicity of gemcitabine without PCI, MTT assay; format: cell-based, human
Source text: The cell lines used were TFK-1 and EGI-1, both were obtained from the Department of Cancer Prevention, The Norwegian Radium Hospital, Oslo, Norway. TFK-1 is a human papillary bile duct adenocarcinoma cell line and EGI-1 is a poorly differentiated human bile duct adenocarcinoma cell line. Both cell lines originate from extrahepatic tumours (Saijyo et al., 1995, Tohoku J. Exp. Med., 177:61-71; EGI-1-Cell LINCS Library of Intergrated network-based Cellular Signatures. Available from the website having the URL beginning with “[…] ending with “.hms.harvard.edu/db/cells/50181/”), but are quite different both morphologically and physiologically (Xu et al., 2013, Clinical Cancer Research, January 1; 19(1):118-27; Pignochino et al., 2010, BMC Cancer, 10:631).

[6] = test system: TFK-1 cells; experiment: Colony formation assay after PCI treatment; format: cell-based, human
Protocol: Cells (25 000 cells/well) were seeded out in 6 well plates (Nunc) and allowed to adhere overnight and subjected to photochemical treatment described above. The cells were placed in the incubator and the culture medium was replaced with fresh culture medium after 3 days incubation. […] Subsequently, cells were washed in H2O and then dried before being evaluated by visual inspection.

[7] = gemcitabine 100 nM alone, no PCI
[8] = 4 hours exposure, up to 1 mM tested, data not shown

Nc1ccn([C@@H]2O[C@H](CO)[C@@H](O)C2(F)F)c(=O)n1 [Gemcitabine, 4-amino-1-(2-deoxy-2,2-difluoro-β-D-erythro-pentofuranosyl)pyrimidin-2(1H)-on]
effect on cell survival [1, 7]: no effect on cell survival | cytotoxic effect [2, 7]: about 50% | cytotoxic effect [3, 8]: only a very modest cytotoxic effect | cytotoxicity ([3]; 72 hours exposure, 3 μM gemcitabine): about 50% | effect on tumour growth ([4]; gemcitabine 200 mg/kg i.v., PCI: Amphinex 5 mg/kg i.v. + 650 nm 15 J/cm^2): no | effect on tumour growth ([4]; gemcitabine 200 mg/kg i.v., PCI: Amphinex 5 mg/kg i.v. + 650 nm 15 J/cm^2, listed as gemcitabine): neither the photochemical treatment alone (PCI alone) nor gemcitabine alone had a significant effect on tumour growth | No. of animals alive at the end of study ([4]; gemcitabine 200 mg/kg): 5 | effect on tumour growth ([4]; gemcitabine 400 mg/kg i.v., PCI: Amphinex 5 mg/kg i.v. + 650 nm 15 J/cm^2): only a very modest; also recorded: neither the photochemical treatment alone (PCI alone) nor gemcitabine alone (Gemcitabine 400 mg/kg) had a significant effect on tumour growth | No. of animals alive at the end of study ([4]; gemcitabine 400 mg/kg): 6 | cell killing (>90% level) ([5]; 3 000 nM gemcitabine without PCI, 72 hours): this level of cell killing was not obtained | cytotoxic effect [5, 8]: only a very modest cytotoxic effect | sensitivity to gemcitabine (cytotoxicity) ([5]; 72 hours exposure, highest dose employed (up to 3 μM)): insensitive | colony forming ability ([6]; gemcitabine 10 nM, PCI illumination time 140 s): substantial colony formation was observed | colony forming ability ([6]; gemcitabine 33 nM): some colony formation could be observed | colony forming ability ([6]; gemcitabine 100 nM): unable to form colonies | colony forming ability ([6]; gemcitabine 330 nM): unable to form colonies

Di (monoethanolammonium) meso-tetraphenyl chlorin disulfonate [PCI alone]
cells killed ([1]; photochemical treatment alone, highest light dose): about 50% | effect on cell survival ([2]; photochemical treatment alone, 0.4 μg/ml TPCS2a + blue light): only a modest effect on cell survival | No. of animals alive at the end of study ([4]; Amphinex 5 mg/kg + laser, no gemcitabine): 2 | effect on tumour growth ([4]; Amphinex 5 mg/kg i.v. + laser 15 J/cm^2, without gemcitabine): virtually no effect; also recorded: neither the photochemical treatment alone (PCI alone) nor gemcitabine alone (Gemcitabine 400 mg/kg) had a significant effect on tumour growth | colony forming ability ([6]; PCI alone, illumination time 140 s): still had the ability to form colonies

Reference: US20200338044A1 (PCI Biotech AS, priority 2016, published 2020)
